Measurements from patent publication US20190060371A1, “METHODS FOR CONTROLLED PROLIFERATION OF VESTIBULAR STEM CELLS / GENERATING INNER EAR HAIR CELLS USING WNT AND TGFBETA-INHIBITION” (Frequency Therapeutics, Inc., priority 2016, published 2019).
“Also recorded” adds a separate entry of the source.

Legend:
[1] = system: supporting cell/stem cell; experiment: Expansion of Sox2 and Sox9 positive cells from vestibular organs in 3D Matrigel culture; format: cell-based, neonatal mice; conditions: for cell growth when added to Wnt agonism (C) (total cells, FIG. 2): added to GF+C (CHIR99021), D10; for colony size compared to Wnt agonism alone (FIG. 5): TGF-beta inhibitor added to CHIR99021 in a background of GF
Protocol: Isolation of stem cells from the inner ear: All animal studies were conducted under an approved institutional protocol according to National Institutes of Health guidelines. For experiments with neonatal mice (postnatal days 1-3), the vestibular organs were dissected in HBSS. The vestibular organs were then treated with TrypLE (Life Technologies) for 15-20 minutes at […]. Single cells obtained by mechanical trituration were filtered (40 μm) and suspended in Matrigel (Corning) for 3D culture. Cells were cultured in a 1:1 mixture of DMEM and F12, supplemented with Glutamax (GIBCO), N2, B27 (Invitrogen), EGF (50 ng/mL; Chemicon), bFGF (50 ng/mL; Chemicon), IGF1 (50 ng/mL; Chemicon) and a composition comprising the following agents: CHIR99021 (a Wnt activator), 616452 (a TGF-beta inhibitor), Noggin (a BMP4 inhibitor), VPA (HDAC inhibitor), and combinations there. Media were changed every other day. Total cells were quantified after 10 days (D10) in culture in multiple conditions. (i) GF; ([…]6); wherein On D10, cell colonies were dissociated into single cells using TrypLE (Gibco). The cells were then stained with propidium iodide (PI) and analyzed using a flow cytometer expression. The number of cells were quantified. […] Also on D10, cells were stained with Sox2 (data not shown), as well as Sox9, Rhodamine Phalloidin (stains F-actin), and DAPI (nuclear stain) (see FIG. 3) to assess the identity of the cell populations. Colonies were visualized using confocal microscopy. Sox2 and Sox9 are stem cell markers in the balance organs.

progenitor colonies = experiment: Differentiation of Sox2 and Sox9 progenitor cell colonies into hair cells; format: cell-based, neonatal mice; conditions: gamma secretase inhibition; confocal images
Protocol: Isolation of stem cells from the inner ear: All animal studies were conducted under an approved institutional protocol according to National Institutes of Health guidelines. For experiments with neonatal mice (postnatal days 1-3), the vestibular organs were dissected in HBSS. The vestibular organs were then treated with TrypLE (Life Technologies) for 15-20 minutes at […]. Single cells obtained by mechanical trituration were filtered (40 μm) and suspended in Matrigel (Corning) for 3D culture.
Differentiation of Sox2 and Sox9 Progenitor Cells Stem cell colonies were differentiated in a 1:1 mixture of DMEM and F12, supplemented with Glutamax (GIBCO), N2, B27 (Invitrogen), with the addition of molecules that drive differentiation, or after removal of growth factors without the addition of molecules that drive differentiation. Small molecules were added to the culture to test their effect on differentiation.
Indicative of hair cells, the cells express Myo VIIa (green) and have actin hair bundles (red).

| SMILES | cell growth when added to Wnt agonism (C) (total cells, FIG. 2) ([1]; flow cytometer) | colony size compared to Wnt agonism alone (FIG. 5) [1] | further results |
| --- | --- | --- | --- |
| Cc1c[nH]c(-c2cnc(NCCNc3ccc(C#N)cn3)nc2-c2ccc(Cl)cc2Cl)n1 [CHIR99021] | – | – | supporting cell/stem cell growth (total cells, FIG. 2) ([1]; added to GF (EGF, FGF, IGF), 10 days (D10), flow cytometer): promoted supporting cell/stem cell growth; supporting cell/stem cell growth and colony formation (FIG. 5) ([1]; in a background of GF): promoted supporting cell/stem cell growth and colony formation |
| Cc1cccc(-c2n[nH]cc2-c2ccc3ncccc3n2)n1 [Compound 616452, 2-(3-(6-Methylpyridin-2-yl)-1H-pyrazol-4-yl)-1,5-naphthyridine] | improved stem cell growth | – | – |
| Cc1cccc(-c2nn(C(=S)Nc3ccccc3)cc2-c2ccnc3ccccc23)n1 [Compound A-83-01, 3-(6-Methylpyridin-2-yl)-4-(4-quinolyl)-1-phenylthiocarbamoyl-1H-pyrazole] | – | larger colonies | colony size compared to Wnt agonism alone (FIG. 5) ([1]; listed as A 83-01): larger supporting cell/stem cell colonies |
| C[C@H](NC(=O)[C@@H](O)c1cc(F)cc(F)c1)C(=O)N[C@@H]1C(=O)N(C)c2ccccc2-c2ccccc21 [LY411575] | – | – | conversion of colonies into hair cells (Myosin VIIA, actin hair bundles; FIG. 4) (progenitor colonies): differentiated into high purity populations of hair cells; also recorded: converted into high purity hair cell populations |
| NC(=O)c1ccc(-c2nc(-c3ccc4c(c3)OCO4)c(-c3ccccn3)[nH]2)cc1 [SB-431542, 4-[4-(1,3-Benzodioxol-5-yl)-5-(2-pyridinyl)-1H-imidazol-2-yl]-benzamide] | – | larger supporting cell/stem cell colonies | – |
| CCCC(CCC)C(=O)O [VPA, valproic acid] | inhibited cell growth | – | – |
